Some test systems named below: 786-0; A549; CAKI-1; HCT-116; HT-29; MCF7; MDA-MB-231; MDA-MB-435; NCI-H226; NCI-H23; OVCAR-5; RPMI-8226; RXF 393; SF-268; SF-295; SK-MEL-5; SK-OV-3; SN12C; SW-620; UO-31.
What all share (test): NCI anticancer screen, dose series, 48 h

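Interpolation was linear, between the two tested concentrations surrounding the appropriate level; five concentrations were tested over 48 hours in 96-well plates. Here, GI50 denotes the concentration required for 50% inhibition of growth.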 Calls of active or inactive are those of the source. Rule as the data show it: active = GI50 up to about 1.1 µM and inactive = higher. Where only a bound is given, the exact number is not on record here.

For `Clc1ccc(CN2CCCN(Cc3ccc(Cl)cc3)C2c2cc3ccccc3c3ccccc23)cc1`, the GI50 with 786-0 is 75 µM (inactive); with A549, > 100 µM (inactive); in the test with CAKI-1, 49.8 µM (inactive); in the test with HCT-116, 44.8 µM (inactive); in the test on HT-29, 36.8 µM (inactive); in the test with MCF7 it was 37.2 µM (inactive). Moreover, the GI50 is 25.4 µM (inactive) with MDA-MB-231; 30.2 µM (inactive) in the test on MDA-MB-435; > 100 µM (inactive) in the test with NCI-H226; 46.3 µM (inactive) with NCI-H23; 36.9 µM (inactive) with OVCAR-5; 45.1 µM (inactive) with RPMI-8226. The GI50 was 24.8 µM (inactive) in the test on RXF 393; 44.3 µM (inactive) in the test with SF-268; 52.2 µM (inactive) with SF-295; 17.8 µM (inactive) in the test with SK-MEL-5; > 100 µM (inactive) with SK-OV-3; 67.3 µM (inactive) with SN12C. Moreover, the GI50 in the test on SW-620 is 51.8 µM (inactive); with UO-31, 88.1 µM (inactive).
In the case of `CCOC(=O)C(NC(=O)CC)(Nc1ccc(S(=O)(=O)Nc2ncccn2)cc1)C(F)(F)F` (stereo not given), the GI50 in the test on 786-0, in the test on A549, in the test on CAKI-1, with HCT-116, with HT-29 and with MCF7 was > 100 µM (inactive) throughout. Moreover, the GI50 with MDA-MB-231, in the test with MDA-MB-435, in the test on NCI-H226, in the test on NCI-H23, with OVCAR-5 and with RPMI-8226 was > 100 µM (inactive) each time. Moreover, the GI50 in the test on RXF 393, in the test on SF-268, in the test with SF-295, in the test on SK-MEL-5, in the test with SK-OV-3 and in the test on SN12C was > 100 µM (inactive) each time. Also, the GI50 with SW-620 and in the test on UO-31 was > 100 µM (inactive) in each case.
Turning to `CN(Cc1cc(Cl)cc(Cl)c1)CC(C(=O)c1ccccc1)c1ccccc1` (stereo not given), the GI50 is 2.49 µM (inactive) with 786-0; 23.3 µM (inactive) in the test on A549; 1.03 µM (active) in the test on CAKI-1; 0.689 µM (active) in the test on HCT-116; 1.12 µM (active) in the test with HT-29; 3.73 µM (inactive) in the test on MCF7. Further, the GI50 is 6.81 µM (inactive) in the test on MDA-MB-231; 3.61 µM (inactive) in the test with MDA-MB-435; 5.5 µM (inactive) in the test with NCI-H226; 1.7 µM (inactive) in the test with NCI-H23; 6.21 µM (inactive) in the test on OVCAR-5; 0.1 µM (active) in the test on RPMI-8226. The GI50 in the test on RXF 393 was 4 µM (inactive); with SF-268 it was 13.7 µM (inactive); in the test on SF-295, 27 µM (inactive); in the test on SK-MEL-5, 10.5 µM (inactive); in the test on SK-OV-3 it was 10.6 µM (inactive); with SN12C it was 4.67 µM (inactive). Further, the figures for the GI50 with SW-620 and in the test on UO-31 were 0.326 µM (active) and 6.46 µM (inactive), respectively.
`Cc1ccc(C2=Nn3c(nc4sc5c(c4c3=O)CCCC5)SC2)cc1`: the GI50 with 786-0, in the test on A549, with CAKI-1, in the test with HCT-116, with HT-29 and in the test with MCF7 was > 100 µM (inactive) in each case. Moreover, the GI50 with MDA-MB-231, with MDA-MB-435, with NCI-H226, in the test with NCI-H23, with OVCAR-5 and in the test with RPMI-8226 was > 100 µM (inactive) throughout. The GI50 with RXF 393, in the test on SF-268, with SF-295, in the test with SK-MEL-5, with SK-OV-3 and in the test on SN12C was > 100 µM (inactive) each time. For the same molecule, the GI50 in the test on SW-620 and in the test with UO-31 was > 100 µM (inactive) each time.
For the molecule `C=C1C(=O)OC2CC3(C)OC3CC/C(C)=C/C(OC(C)=O)C12` (stereo not given), the GI50 was 4.6 µM (inactive) in the test on 786-0; 17.3 µM (inactive) in the test on A549; 2.13 µM (inactive) in the test on CAKI-1; 4.05 µM (inactive) in the test with HCT-116; 4.15 µM (inactive) in the test on HT-29; 4.59 µM (inactive) with MCF7. Besides, the GI50 was 12.4 µM (inactive) in the test with MDA-MB-231; 12.6 µM (inactive) with MDA-MB-435; 7.45 µM (inactive) in the test on NCI-H226; 13.3 µM (inactive) in the test with NCI-H23; 8.51 µM (inactive) in the test with OVCAR-5; 2.13 µM (inactive) in the test with RPMI-8226. The GI50 was 4.79 µM (inactive) in the test on RXF 393; 17 µM (inactive) in the test with SF-268; 14 µM (inactive) with SF-295; 8.02 µM (inactive) with SK-MEL-5; 20 µM (inactive) in the test on SK-OV-3; 11.5 µM (inactive) with SN12C. The GI50 is 1.72 µM (inactive) with SW-620 and 13.6 µM (inactive) in the test with UO-31.
Consider `O=C(O)c1ccc(Nc2nc3ccc(C(F)(F)F)cc3nc2C(=O)O)cc1`, for which the GI50 in the test on 786-0, in the test with A549, in the test on CAKI-1, in the test on HCT-116, with HT-29 and in the test with MCF7 was > 100 µM (inactive) throughout. The GI50 with MDA-MB-231, in the test with MDA-MB-435, with NCI-H226, with NCI-H23, with OVCAR-5 and in the test on RPMI-8226 was > 100 µM (inactive) in each case. In addition, the GI50 in the test on RXF 393, with SF-268, in the test with SF-295, in the test on SK-MEL-5, with SK-OV-3 and in the test on SN12C was > 100 µM (inactive) in each case. The GI50 with SW-620 and in the test with UO-31 was > 100 µM (inactive) throughout.
Take `Cc1ncc(-c2nnnn2-c2ccccc2)c(C(=O)O)n1`: the GI50 with 786-0, in the test with A549, in the test with CAKI-1, in the test on HCT-116, with HT-29 and in the test with MCF7 was > 100 µM (inactive) in each case. Moreover, the GI50 in the test on MDA-MB-231, in the test on MDA-MB-435, in the test on NCI-H226, in the test on NCI-H23, in the test with OVCAR-5 and with RPMI-8226 was > 100 µM (inactive) throughout. The GI50 with RXF 393, with SF-268, with SF-295, in the test with SK-MEL-5, in the test on SK-OV-3 and in the test on SN12C was > 100 µM (inactive) each time. Besides, the GI50 in the test on SW-620 and in the test with UO-31 was > 100 µM (inactive) throughout.
Consider `Cc1c(C)c2c(c(N)c1C#N)C(=O)N(N)C2=O`, for which the GI50 is 87.9 µM (inactive) in the test on 786-0; > 100 µM (inactive) in the test on A549; > 100 µM (inactive) with CAKI-1; 84.9 µM (inactive) with HCT-116; > 100 µM (inactive) with HT-29; > 100 µM (inactive) in the test on MCF7. The GI50 in the test on MDA-MB-231 is > 100 µM (inactive); with MDA-MB-435, > 100 µM (inactive); in the test with NCI-H226, 78.7 µM (inactive); in the test on NCI-H23, > 100 µM (inactive); with OVCAR-5, > 100 µM (inactive); with RPMI-8226, > 100 µM (inactive). For the same molecule, the GI50 in the test on RXF 393, in the test with SF-268, with SF-295, in the test with SK-MEL-5, in the test on SK-OV-3 and in the test on SN12C was > 100 µM (inactive) throughout. Moreover, the GI50 in the test with SW-620 is 80.5 µM (inactive); in the test on UO-31, 93.3 µM (inactive).
On to `N#CC(C#N)[C@@H]1CCC=C(Sc2ccccc2)[C@H]1Sc1ccccc1`, for which the GI50 in the test on 786-0 was 2.17 µM (inactive); in the test with A549, 3.28 µM (inactive); with CAKI-1, 2.65 µM (inactive); in the test on HCT-116 it was 2.11 µM (inactive); in the test with HT-29, 3.87 µM (inactive); in the test with MCF7 it was 2.95 µM (inactive). Moreover, the GI50 with MDA-MB-231 is 4.05 µM (inactive); in the test with MDA-MB-435, 1.26 µM (inactive); in the test with NCI-H226 it was 1.72 µM (inactive); with NCI-H23 it was 3.96 µM (inactive); in the test on OVCAR-5, 5.58 µM (inactive); with RPMI-8226, 2.28 µM (inactive). The GI50 in the test with RXF 393 was 1.83 µM (inactive); in the test with SF-268 it was 5.62 µM (inactive); with SF-295 it was 6.44 µM (inactive); in the test on SK-MEL-5, 3.41 µM (inactive); in the test on SK-OV-3, 4.54 µM (inactive); with SN12C, 2.8 µM (inactive). The results for the GI50 with SW-620 and with UO-31 were 2.42 µM (inactive) and 5.31 µM (inactive), respectively.
Consider `CCOC(=O)C(C(=O)OCC)C(NC(=O)Nc1cc(C(F)(F)F)ccc1OC)(C(F)(F)F)C(F)(F)F`, for which the GI50 is 24.6 µM (inactive) in the test on 786-0; 39.4 µM (inactive) in the test on A549; 29.4 µM (inactive) in the test with CAKI-1; 36.2 µM (inactive) in the test with HCT-116; 35.8 µM (inactive) in the test on HT-29; 37.2 µM (inactive) in the test with MCF7. Further, the GI50 is 17.4 µM (inactive) in the test with MDA-MB-231; 19.1 µM (inactive) in the test with MDA-MB-435; 25.5 µM (inactive) in the test with NCI-H226; 35.3 µM (inactive) in the test with NCI-H23; 45.8 µM (inactive) with OVCAR-5; 18.8 µM (inactive) in the test on RPMI-8226. Besides, the GI50 in the test on RXF 393 was 30.3 µM (inactive); in the test with SF-268, 36.4 µM (inactive); with SF-295, 23.2 µM (inactive); in the test with SK-MEL-5 it was 19.4 µM (inactive); in the test with SK-OV-3, 47.6 µM (inactive); in the test with SN12C, 27.5 µM (inactive). In addition, the GI50 in the test on SW-620 is 24.6 µM (inactive); with UO-31, 21 µM (inactive).

Values taken from ChEMBL document CHEMBL1201862, “PubChem BioAssay data set” (2004).
